The results in this text go back to patent publication US20240252488A1 (KOREA RESEARCH INSTITUTE OF CHEMICAL TECHNOLOGY, priority 2020, published 2024).

Test [1] concerns FADD−/− Jurkat cells. The experiment in a line: Necroptosis inhibition assay, TNF-α-induced necroptosis (CellTiter-Glo 2.0). It counts as cell-based, human. As to conditions: TNF-α 15 ng/mL; for Necroptosis inhibition assay (Rescue %) 1 μM: compound 1 μM; for Necroptosis inhibition assay (Rescue %) 10 μM: compound 10 μM. A digest of the protocol:
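Luminescent ATP measurement gave viability, from which cytotoxicity and necroptosis inhibition rate were derived. Before that, cells (5.0×10^5 cells/mL) saw compound at 0.1, 1 or 10 μM final for 30 minutes at room temperature, then TNF-α (15 ng/mL final) for 20 to 24 hours at 37° C.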

Test [2] concerns the target T1, MLKL (Homo sapiens, UniProt Q8NB16).
T1 sequence (Q8NB16 1-471): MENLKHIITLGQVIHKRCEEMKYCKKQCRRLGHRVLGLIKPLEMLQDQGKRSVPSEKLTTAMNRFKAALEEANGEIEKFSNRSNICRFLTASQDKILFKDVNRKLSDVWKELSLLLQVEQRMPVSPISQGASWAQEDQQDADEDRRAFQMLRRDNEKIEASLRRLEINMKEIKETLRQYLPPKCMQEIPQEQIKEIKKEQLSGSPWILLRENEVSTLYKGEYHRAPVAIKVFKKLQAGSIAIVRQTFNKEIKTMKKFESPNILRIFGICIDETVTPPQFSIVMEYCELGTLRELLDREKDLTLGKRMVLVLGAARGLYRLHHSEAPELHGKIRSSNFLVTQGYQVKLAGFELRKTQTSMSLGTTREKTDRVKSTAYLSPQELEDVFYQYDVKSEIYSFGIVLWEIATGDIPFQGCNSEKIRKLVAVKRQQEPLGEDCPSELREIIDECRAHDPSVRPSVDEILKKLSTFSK
The experiment in a line: MLKL degradation assay in HepG2 cell line (western blot). The arrangement: endogenous in cells; host or cells: HepG2 or HaCaT. As to conditions: cell line not given; for Degradation assay (Degradation %) 1 μM: compound 1 μM; for Degradation assay (Degradation %) 10 μM: compound 10 μM. In kind it is cell-based. A digest of the protocol:
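Cells seeded, next day medium swapped for compound-containing medium (final 1 or 10 μM) and incubated 20-24 h at 37 °C. Lysates in RIPA with protease/phosphatase inhibitors were protein-matched by BCA, run on SDS-PAGE and immunoblotted for MLKL.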
A general note: In western blotting, separated proteins are transferred to a membrane and probed.

Test [3] has as its target T1, MLKL. Put plainly: Measurement of binding affinity with MLKL receptor (competitive binding assay, Kd). Set-up: made in house; host or cells: HEK 293 cell line (T7 phage in E. coli BL21-derived host is also described). A digest of the protocol:
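MLKL was produced in HEK 293 cells and tagged with DNA for detection. Liganded beads were blocked with excess biotin and washed to cut non-specific binding, then compounds (111× DMSO stocks, 0.9% DMSO in assay) competed for binding. Eluate kinase was measured by qPCR for Kd.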

One may read the Kd as a measure of binding affinity in units of concentration. A low value points to higher affinity. For `Nc1ncc(-c2cnn(C3CCN(CC4CCN(CCC5CCN(C(=O)Cc6cccc(NC7=CC(=O)N(C8CCC(=O)NC8=O)C7=O)c6)CC5)CC4)CC3)c2)nc1C(=O)O[C@@H](C(=O)Nc1ccc(F)cc1)c1ccccc1` (stereo partly drawn) [TDH-507, (R)-2-((4-fluorophenyl)amino)-2-oxo-1-phenylethyl 3-amino-6-(1-(1-((1-(2-(1-(2-(3-((1-(2,6-dioxopiperidin-3-yl)-2,5-dioxo-2,5-dihydro-1H-pyrrol-3-yl)amino)phenyl)acetyl)piperidin-4-yl)ethyl)piperidin-4-yl)methyl)piperidin-4-yl)-1H-pyrazol-4-yl)pyrazine-2-carboxylate], in test [1] (FADD−/− Jurkat cells), the “Necroptosis inhibition assay (Rescue %) 1 μM” value was determined as 26.03% and the “Necroptosis inhibition assay (Rescue %) 10 μM” value is given as 14.19%. Besides, in test [2], the “Degradation assay (Degradation %) 1 μM” value came to 82.75% and the “Degradation assay (Degradation %) 10 μM” value came out at 86.37%. The Kd in test [3] worked out at 1.1 nM.
In the same order, the values of `Cn1c(=O)n(C2CCC(=O)NC2=O)c2ccc(N3CCC(C(=O)N4CCN(CCCN5CCC(n6cc(-c7cnc(N)c(C(=O)O[C@@H](C(=O)Nc8ccc(F)cc8)c8ccccc8)n7)cn6)CC5)CC4)CC3)cc21` (stereo partly drawn) [TDH-540, (R)-2-((4-fluorophenyl)amino)-2-oxo-1-phenylethyl 3-amino-6-(1-(1-(3-(4-(1-(1-(2,6-dioxopiperidin-3-yl)-3-methyl-2-oxo-2,3-dihydro-1H-benzo[d]imidazol-5-yl)piperidine-4-carbonyl)piperazin-1-yl)propyl)piperidin-4-yl)-1H-pyrazol-4-yl)pyrazine-2-carboxylate] are 20.79%, 17.37%, 81.44%, 56.99% and 0.37 nM.
Taken in the same sequence, the figures for `Nc1ncc(-c2cnn(C3CCN(C(=O)CCC4CCN(c5ccc6c(c5)C(=O)N(C5CCC(=O)NC5=O)C6=O)CC4)CC3)c2)nc1C(=O)O[C@@H](C(=O)Nc1ccc(F)cc1)c1ccccc1` (stereo partly drawn) [TDH-420, (R)-2-((4-fluorophenyl)amino)-2-oxo-1-phenylethyl 3-amino-6-(1-(1-(3-(1-(2-(2,6-dioxopiperidin-3-yl)-1,3-dioxoisoindolin-5-yl)piperidin-4-yl)propanoyl)piperidin-4-yl)-1H-pyrazol-4-yl)pyrazine-2-carboxylate] were 8.39%, 2.00%, 74.57%, 51.38% and 10 nM.
With `Nc1ncc(-c2cnn(C3CCN(CC4CCN(C(=O)CC5CCN(c6ccc7c(c6)C(=O)N(C6CCC(=O)NC6=O)C7=O)CC5)CC4)CC3)c2)nc1C(=O)O[C@@H](C(=O)Nc1ccc(F)cc1)c1ccccc1` (stereo partly drawn) [TDH-205, (R)-2-((4-fluorophenyl)amino)-2-oxo-1-phenylethyl 3-amino-6-(1-(1-((1-(2-(1-(2-(2,6-dioxopiperidin-3-yl)-1,3-dioxoisoindolin-5-yl)piperidin-4-yl)acetyl)piperidin-4-yl)methyl)piperidin-4-yl)-1H-pyrazol-4-yl)pyrazine-2-carboxylate], in test [1], the “Necroptosis inhibition assay (Rescue %) 1 μM” value was determined as 59.88% and the “Necroptosis inhibition assay (Rescue %) 10 μM” value stood at 41.34%. In test [2], the “Degradation assay (Degradation %) 1 μM” value was found to be 57.56% and the “Degradation assay (Degradation %) 10 μM” value amounted to 36.05%. This compound returned a Kd in test [3] of 6.7 nM.
Take `Nc1ncc(-c2cnn(C3CCN(C4CC5(CCN(CC6CCN(C(=O)c7ccc8c(N9CCC(=O)NC9=O)coc8c7)CC6)CC5)C4)CC3)c2)nc1C(=O)O[C@@H](C(=O)Nc1ccc(F)cc1)c1ccccc1` [TDH-553, (R)-2-((4-fluorophenyl)amino)-2-oxo-1-phenylethyl 3-amino-6-(1-(1-(7-((1-(3-(2,4-dioxotetrahydropyrimidin-1(2H)-yl)benzofuran-6-carbonyl)piperidin-4-yl)methyl)-7-azaspiro[3.5]nonan-2-yl)piperidin-4-yl)-1H-pyrazol-4-yl)pyrazine-2-carboxylate]: in test [1] (FADD−/− Jurkat cells), the “Necroptosis inhibition assay (Rescue %) 1 μM” value came to 58.63% and the “Necroptosis inhibition assay (Rescue %) 10 μM” value is given as −20.56%. For the same compound, in test [2], the “Degradation assay (Degradation %) 1 μM” value was 84.21% and the “Degradation assay (Degradation %) 10 μM” value is 91.57%. In addition, the affinity in test [3], expressed as Kd, was 0.31 nM.
As to `Nc1ncc(-c2cnn(C3CCN(CCC4CCN(C(=O)CNc5cccc6c5C(=O)N(C5CCC(=O)NC5=O)C6=O)CC4)CC3)c2)nc1C(=O)O[C@@H](C(=O)Nc1ccc(F)cc1)c1ccccc1` (stereo partly drawn) [TDH-198, (R)-2-((4-fluorophenyl)amino)-2-oxo-1-phenylethyl 3-amino-6-(1-(1-(2-(1-((2-(2,6-dioxopiperidin-3-yl)-1,3-dioxoisoindolin-4-yl)glycyl)piperidin-4-yl)ethyl)piperidin-4-yl)-1H-pyrazol-4-yl)pyrazine-2-carboxylate], in test [1], the “Necroptosis inhibition assay (Rescue %) 1 μM” value came out at 79.13% and the “Necroptosis inhibition assay (Rescue %) 10 μM” value is 31.65%. In addition, in test [2], the “Degradation assay (Degradation %) 1 μM” value is given as 69.49% and the “Degradation assay (Degradation %) 10 μM” value was determined as 41.71%. The Kd in test [3] came out at 1.3 nM.
In the case of `Nc1ncc(-c2cnn([C@H]3CCN(CCOCCOCCNC(=O)COc4cccc5c4C(=O)N(C4CCC(=O)NC4=O)C5=O)C3)c2)nc1C(=O)OC(C(=O)Nc1ccc(F)cc1)c1ccccc1` (stereo partly drawn) [TDH-265, 2-((4-fluorophenyl)amino)-2-oxo-1-phenylethyl 3-amino-6-(1-((3S)-1-(2-(2-(2-(2-((2-(2,6-dioxopiperidin-3-yl)-1,3-dioxoisoindolin-4-yl)oxy)acetamido)ethoxy)ethoxy)ethyl)pyrrolidin-3-yl)-1H-pyrazol-4-yl)pyrazine-2-carboxylate], in test [1], the “Necroptosis inhibition assay (Rescue %) 1 μM” value turned out to be 19.18% and the “Necroptosis inhibition assay (Rescue %) 10 μM” value is 41.68%. In test [2], the “Degradation assay (Degradation %) 1 μM” value is 11.99% and the “Degradation assay (Degradation %) 10 μM” value was determined as 49.83%. The compound also returned a Kd in test [3] of 4.4 nM.
In the case of `Nc1ncc(-c2cnn(C3CCN(CC4CCN(C(=O)C5CCN(C6=CC(=O)N(C7CCC(=O)NC7=O)C6=O)CC5)CC4)CC3)c2)nc1C(=O)O[C@@H](C(=O)Nc1ccc(F)cc1)c1ccccc1` (stereo partly drawn) [TDH-523, (R)-2-((4-fluorophenyl)amino)-2-oxo-1-phenylethyl 3-amino-6-(1-(1-((1-(1-(1-(2,6-dioxopiperidin-3-yl)-2,5-dioxo-2,5-dihydro-1H-pyrrol-3-yl)piperidine-4-carbonyl)piperidin-4-yl)methyl)piperidin-4-yl)-1H-pyrazol-4-yl)pyrazine-2-carboxylate], in test [1] (FADD−/− Jurkat cells), the “Necroptosis inhibition assay (Rescue %) 1 μM” value came to 35.34% and the “Necroptosis inhibition assay (Rescue %) 10 μM” value is on record as 16.27%. Moreover, in test [2], the “Degradation assay (Degradation %) 1 μM” value is given as 89.24% and the “Degradation assay (Degradation %) 10 μM” value came out at 77.14%. The dissociation constant Kd in test [3] turned out to be 1 nM.
Taken in the same sequence, the figures for `Nc1ncc(-c2cnn(C3CCN(C(=O)CC4CCN(C(=O)CNc5ccc6nnn(C7CCC(=O)NC7=O)c(=O)c6c5)CC4)CC3)c2)nc1C(=O)O[C@@H](C(=O)Nc1ccc(F)cc1)c1ccccc1` (stereo partly drawn) [TDH-405, (R)-2-((4-fluorophenyl)amino)-2-oxo-1-phenylethyl 3-amino-6-(1-(1-(2-(1-((3-(2,6-dioxopiperidin-3-yl)-4-oxo-3,4-dihydrobenzo[d][1,2,3]triazin-6-yl)glycyl)piperidin-4-yl)acetyl)piperidin-4-yl)-1H-pyrazol-4-yl)pyrazine-2-carboxylate] were 36.97%, 37.28%, 70.59%, 64.30% and 3.2 nM.
With `Nc1ncc(-c2cnn(C3CCN(CCOCCOCCNC(=O)C4CCN(c5cccc6c5C(=O)N(C5CCC(=O)NC5=O)C6=O)CC4)CC3)c2)nc1C(=O)N[C@@H](C(=O)Nc1ccc(F)cc1)c1ccccc1` (stereo partly drawn) [TDH-213, 3-amino-6-(1-(1-(2-(2-(2-(1-(2-(2,6-dioxopiperidin-3-yl)-1,3-dioxoisoindolin-4-yl)piperidine-4-carboxamido)ethoxy)ethoxy)ethyl)piperidin-4-yl)-1H-pyrazol-4-yl)-N-((R)-2-((4-fluorophenyl)amino)-2-oxo-1-phenylethyl)pyrazine-2-carboxamide], in test [1], the “Necroptosis inhibition assay (Rescue %) 1 μM” value amounted to 18.34% and the “Necroptosis inhibition assay (Rescue %) 10 μM” value is 44.98%. In addition, in test [2], the “Degradation assay (Degradation %) 1 μM” value stood at 4.45% and the “Degradation assay (Degradation %) 10 μM” value amounted to 8.28%. The same compound gave a Kd in test [3] of 330 nM.
